Results taken from publication PMC7283271, “ADP binding by the Culex quinquefasciatus mosquito D7 salivary protein enhances blood feeding on mammals” (Nature Communications, 2020).

Assays:
Assay type in all cases: binding
[1] = biological target: CxD7L1 (Culex quinquefasciatus, UniProt A0A1S4K3K8); assay: ITC; design: gene D7L1; mature protein, C-terminal 6x-His, HEK293
[2] = biological target: T1, CxD7L2 (Culex quinquefasciatus, UniProt B0X6Z1); assay: ITC
T1 construct: gene D7L2; full-length mature protein, C-terminal 6x-His, HEK293

[3] = biological target: T1, CxD7L2; assay: ITC (also with protein saturated with serotonin)

T1 sequence (B0X6Z1 21-313 limits assumed): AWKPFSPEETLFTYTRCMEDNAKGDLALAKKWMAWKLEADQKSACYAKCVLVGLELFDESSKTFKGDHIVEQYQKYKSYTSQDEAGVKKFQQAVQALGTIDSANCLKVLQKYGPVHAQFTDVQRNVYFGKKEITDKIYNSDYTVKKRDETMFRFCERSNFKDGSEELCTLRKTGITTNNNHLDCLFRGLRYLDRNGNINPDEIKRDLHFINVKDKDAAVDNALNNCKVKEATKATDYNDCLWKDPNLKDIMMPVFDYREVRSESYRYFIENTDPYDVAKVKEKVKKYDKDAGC
Chain of CxD7L1 (A0A1S4K3K8 17-311 limits assumed): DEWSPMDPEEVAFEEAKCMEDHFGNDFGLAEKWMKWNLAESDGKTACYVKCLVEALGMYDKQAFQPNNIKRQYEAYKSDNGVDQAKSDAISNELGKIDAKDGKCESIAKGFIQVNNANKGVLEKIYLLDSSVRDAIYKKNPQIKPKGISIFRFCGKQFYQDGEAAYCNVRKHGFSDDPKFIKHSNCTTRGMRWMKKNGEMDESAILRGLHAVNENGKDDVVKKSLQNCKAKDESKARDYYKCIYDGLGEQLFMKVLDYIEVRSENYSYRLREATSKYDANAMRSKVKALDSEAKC

| Structure (SMILES) | Kd [2] | further results |
| --- | --- | --- |
| Nc1ncnc2c1ncn2[C@@H]1O[C@H](COP(=O)(O)O)[C@@H](O)[C@H]1O [AMP] | – | Kd [1]: 77.5 nM |
| Nc1ncnc2c1ncn2[C@@H]1O[C@H](COP(=O)(O)OP(=O)(O)OP(=O)(O)O)[C@@H](O)[C@H]1O [ATP] | – | Kd [1]: 30.8 nM |
| NCCc1c[nH]cn1 [Histamine] | 383 nM | – |
| CCCCC/C=C\C\C=C/C=C/C=C/[C@@H](SC[C@H](NC(=O)CC[C@H](N)C(=O)O)C(=O)NCC(=O)O)[C@@H](O)CCCC(=O)O [LTC4] | 152 nM | – |
| CCCCC/C=C\C\C=C/C=C/C=C/[C@@H](SC[C@H](N)C(=O)NCC(=O)O)[C@@H](O)CCCC(=O)O [LTD4] | – | Kd [3]: 156 nM |
| CCCCC/C=C\C\C=C/C=C/C=C/[C@@H](SC[C@H](N)C(=O)O)[C@@H](O)CCCC(=O)O [LTE4] | 159 nM | – |
| NCCc1c[nH]c2ccc(O)cc12 [Serotonin] | 7.46 nM | – |
